Values joined by “and” are separate entries in the source; they are usually repeats but may differ in a detail not shown here. Identical values can stand only once. Inconclusive results and toxic doses are left out. Rule for the calls: active = survival T/C of 150% or more; inactive = T/C below 125% in these data. Starred links: 1 amine or outer side, 2 acyl side, 3 side chain; linkers in the order of their positions; H or OH if unused. Positions of bridges follow the written chain, without caps; N, C: chain ends. Non-standard residues stand in square brackets, D forms with d. Residues, ends and D or L forms follow the SMILES beside them. Chains are numbered I, II in the order given. Actinocin(9to1) = Cc1c2oc3c(C)ccc(C(=O)[*:1])c3nc-2c(C(=O)[*:2])c(N)c1=O; aThr = C[C@H](O)[C@H](N)C(=O)O; NMeV = CN[C@H](C(=O)O)C(C)C; Sar = CNCC(=O)O
Tested on: CD2F1 mice, AMSA-resistant P388 leukemia ip, median survival T/C
Test: NCI In Vivo Anticancer Drug Screen. Data for tumor model P388 Leukemia resistant to AMSA; NSC 249992 (intraperitoneal) in CD2F1 (CDF1) mice
Conditions: endpoint: median survival time, higher = longer survival
Description: The antitumor activity of compounds was measured in mice bearing transplantable tumors. Survival or tumor size were measured and the results are expressed as the measurement made in the treated group (T) divided by the measurement made in the vehicle treated control group (C). The tumor model used in this assay is P388 Leukemia resistant to AMSA; NSC 249992 (intraperitoneal) in CD2F1 (CDF1) mice

[1] = dose: 1.62 mg/kg/injection, schedule: Q04DX003 (ip), vehicle: saline
[2] = dose: 4.5 mg/kg/injection, schedule: Q04DX003 (ip), vehicle: saline
[3] = dose: 0.08 mg/kg/injection, schedule: Q04DX003 (ip), vehicle: saline + alcohol
[4] = dose: 0.13 mg/kg/injection, schedule: Q04DX003 (ip), vehicle: saline + alcohol

Measured: T/C

CN(Cc1cnc2nc(N)nc(N)c2n1)c1ccc(C(=O)N[C@@H](CCC(=O)O)C(=O)O)cc1
active: dose: 3.0 mg/kg/injection, schedule: Q01DX005 (ip), vehicle: sodium bicarbonate 173 % of control | dose: 3.5 mg/kg/injection, schedule: Q01DX005 (ip), vehicle: sodium bicarbonate 171 % of control | dose: 4.0 mg/kg/injection, schedule: Q01DX005 (ip), vehicle: sodium bicarbonate 164 % of control | dose: 4.5 mg/kg/injection, schedule: Q01DX005 (ip), vehicle: sodium bicarbonate 177 % of control | dose: 6.48 mg/kg/injection, schedule: Q04DX003 (ip), vehicle: sodium bicarbonate 165 % of control | dose: 10.8 mg/kg/injection, schedule: Q04DX003 (ip), vehicle: sodium bicarbonate 180 % of control | dose: 18.0 mg/kg/injection, schedule: Q04DX003 (ip), vehicle: sodium bicarbonate 196 % of control
inactive: dose: 30.0 mg/kg/injection, schedule: Q04DX003 (ip), vehicle: sodium bicarbonate 114 % of control | dose: 50.0 mg/kg/injection, schedule: Q04DX003 (ip), vehicle: sodium bicarbonate 98 % of control

CC1OC(OC2CC(O)(C(=O)CO)Cc3c(O)c4c(c(O)c32)C(=O)c2ccccc2C4=O)CC(N)C1O (centres undefined)
inactive: dose: 0.13 mg/kg/injection, schedule: Q04DX003 (ip), vehicle: water 114 % of control | dose: 0.21 mg/kg/injection, schedule: Q04DX003 (ip), vehicle: water 115 % of control | dose: 0.6 mg/kg/injection, schedule: Q04DX003 (ip), vehicle: water 117 % of control | dose: 1.0 mg/kg/injection, schedule: Q04DX003 (ip), vehicle: water 123 % of control

COc1cccc2c1C(=O)c1c(O)c3c(c(O)c1C2=O)C[C@@](O)(C(C)=O)C[C@@H]3OC1CC(N)C(O)C(C)O1 (some centres undefined)
inactive: dose: 0.64 mg/kg/injection, schedule: Q04DX003 (ip), vehicle: water 115 % of control | dose: 0.65 mg/kg/injection, schedule: Q04DX003 (ip), vehicle: saline 103 % of control | dose: 0.97 mg/kg/injection, schedule: Q04DX003 (ip), vehicle: saline 121 % of control | dose: 1.08 mg/kg/injection, schedule: Q04DX003 (ip), vehicle: saline 115 % of control | dose: 1.08 mg/kg/injection, schedule: Q04DX003 (ip), vehicle: water 118 % of control | [1] 123 % of control | dose: 1.8 mg/kg/injection, schedule: Q04DX003 (ip), vehicle: saline 124 % of control | dose: 3.0 mg/kg/injection, schedule: Q04DX003 (ip), vehicle: saline 117 % of control | dose: 3.0 mg/kg/injection, schedule: Q04DX003 (ip), vehicle: water 123 % of control | [2] 119 % of control | dose: 5.0 mg/kg/injection, schedule: Q04DX003 (ip), vehicle: water 123 % of control

COc1cccc2c1C(=O)c1c(O)c3c(c(O)c1C2=O)C[C@@](O)(C(C)=O)C[C@@H]3OC1CC(N(C)C)C(O)C(C)O1 (some centres undefined)
active: dose: 3.6 mg/kg/injection, schedule: Q04DX003 (ip), vehicle: water 150 % of control | dose: 6.0 mg/kg/injection, schedule: Q04DX003 (ip), vehicle: water 168 % of control | dose: 10.0 mg/kg/injection, schedule: Q04DX003 (ip), vehicle: water 166 % of control
inactive: dose: 16.7 mg/kg/injection, schedule: Q04DX003 (ip), vehicle: water 107 % of control

CC(=O)N(C)c1ccc(Nc2cc(C)[nH]c3ccc4ncnc4c23)cc1
inactive: dose: 19.4 mg/kg/injection, schedule: Q04DX002 (ip), vehicle: saline 101 % of control | dose: 20.7 mg/kg/injection, schedule: Q04DX002 (ip), vehicle: saline 104 % of control | dose: 32.4 mg/kg/injection, schedule: Q04DX002 (ip), vehicle: saline 100 % of control | dose: 34.6 mg/kg/injection, schedule: Q04DX002 (ip), vehicle: saline 112 % of control | dose: 54.0 mg/kg/injection, schedule: Q04DX002 (ip), vehicle: saline 119 % of control | dose: 57.6 mg/kg/injection, schedule: Q04DX002 (ip), vehicle: saline 117 % of control | dose: 90.0 mg/kg/injection, schedule: Q04DX002 (ip), vehicle: saline 113 % of control | dose: 96.0 mg/kg/injection, schedule: Q04DX002 (ip), vehicle: saline 109 % of control

Cc1c2oc3c(C)ccc(C(=O)N[C@@H]4C(=O)N[C@H](C(C)C)C(=O)N5CCC[C@H]5C(=O)N(C)CC(=O)N(C)[C@@H](C(C)C)C(=O)O[C@H]4C)c3nc-2c(C(=O)N[C@@H]2C(=O)N[C@H](C(C)C)C(=O)N3CCC[C@H]3C(=O)N(C)CC(=O)N(C)[C@@H](C(C)C)C(=O)O[C@H]2C)c(N)c1=O (I: [aThr][dV]P[Sar][NMeV] / II: [aThr][dV]P[Sar][NMeV]; ester I:1-I:C, II:1-II:C; linker I:N-II:N via Actinocin(9to1))
active: [3] 171 % of control | [4] 223 % of control | dose: 0.18 mg/kg/injection, schedule: Q04DX003 (ip), vehicle: saline + alcohol 155 % of control | dose: 0.3 mg/kg/injection, schedule: Q04DX003 (ip), vehicle: saline + alcohol 176 % of control | dose: 0.5 mg/kg/injection, schedule: Q04DX003 (ip), vehicle: saline + alcohol 219 % of control

c1ccc2c(NCCCCCCNc3c4ccccc4nc4ccccc34)c3ccccc3nc2c1
inactive: dose: 1.94 mg/kg/injection, schedule: Q01DX009 (ip), vehicle: other 123 % of control | dose: 2.59 mg/kg/injection, schedule: Q04DX003 (ip), vehicle: other 123 % of control | dose: 4.32 mg/kg/injection, schedule: Q04DX003 (ip), vehicle: other 110 % of control | dose: 7.2 mg/kg/injection, schedule: Q04DX003 (ip), vehicle: other 94 % of control | dose: 7.78 mg/kg/injection, schedule: Q01DX001 (ip), vehicle: water 93 % of control | dose: 13.0 mg/kg/injection, schedule: Q01DX001 (ip), vehicle: water 98 % of control
active: dose: 10.0 mg/kg/injection, schedule: Q01DX009 (ip), vehicle: Klucel (hydroxypropylcellulose) (HPC) 150 % of control

O=C(Nc1ccc(C2=NCCCN2)cc1)c1ccc(C(=O)Nc2ccc(C3=NCCCN3)cc2)cc1
active: dose: 10.8 mg/kg/injection, schedule: Q04DX003 (ip), vehicle: Klucel (hydroxypropylcellulose) (HPC) 167 % of control | dose: 18.0 mg/kg/injection, schedule: Q04DX003 (ip), vehicle: Klucel (hydroxypropylcellulose) (HPC) 185 % of control | dose: 30.0 mg/kg/injection, schedule: Q04DX003 (ip), vehicle: Klucel (hydroxypropylcellulose) (HPC) 278 % of control
inactive: dose: 50.0 mg/kg/injection, schedule: Q04DX003 (ip), vehicle: Klucel (hydroxypropylcellulose) (HPC) 95 % of control

N[C@@H](Cc1ccc(N(CCCl)CCCl)cc1)C(=O)O
inactive: dose: 15.0 mg/kg/injection, schedule: Q04DX002 (ip), vehicle: saline 120 % of control and 86 % of control
active: [1] 208 % of control | dose: 1.94 mg/kg/injection, schedule: Q04DX002 (ip), vehicle: saline 211 % of control and 212 % of control | dose: 2.7 mg/kg/injection, schedule: Q04DX003 (ip), vehicle: saline 211 % of control | dose: 3.24 mg/kg/injection, schedule: Q04DX002 (ip), vehicle: saline 259 % of control and 262 % of control | [2] 391 % of control | dose: 5.4 mg/kg/injection, schedule: Q04DX002 (ip), vehicle: saline 416 % of control | dose: 7.5 mg/kg/injection, schedule: Q04DX003 (ip), vehicle: saline 391 % of control | dose: 9.0 mg/kg/injection, schedule: Q04DX002 (ip), vehicle: saline 416 % of control | dose: 12.5 mg/kg/injection, schedule: Q04DX003 (ip), vehicle: saline 391 % of control

CO[C@H]1Nc2c(ccc(C)c2O)C(=O)N2C=C(/C=C/C(N)=O)C[C@@H]12
inactive: [3] 104 % of control | [4] 123 % of control

From PubChem BioAssay AID324 (DTP/NCI, 2004)
